Assay: Aqueous solubility of the compound at pH 6.5
Format: physicochemical

Row | Structure (SMILES) | solubility [µg/mL]
1 | Cc1ccc(C(=O)NC2CC2)cc1NC(=O)c1ccc(-c2ccc(Cl)cc2)s1 | < 1
2 | Cc1ccc(C(=O)NC2CC2)cc1NC(=O)c1ccc(-c2ccccc2Cl)s1 | < 1
3 | Cc1ccc(C(=O)NC2CC2)cc1NC(=O)c1ccc(-c2cccc(Cl)c2)s1 | < 1

From ChEMBL document CHEMBL2401637, “The identification of novel p38α isoform selective kinase inhibitors having an unprecedented p38α binding mode” (Bioorg Med Chem Lett, 2013)
